The values that follow come from US20040259179A1, “Sterol markers as diagnostic tools in the prevention of atherosclerotic diseases and as tools to aid in the selection of agents to be used for the prevention and treatment of atherosclerotic disease” (priority 2003, published 2004).

What all share (format): in vivo, human
In experiment [1] the test system is patients with primary hypercholesterolemia. As to the kind of experiment: Non-cholesterol sterol analysis of plasma by GC-MS, EZE/ATORVA trial (Example 3). The settings on record: for effect on concentrations of sitosterol and campesterol (baseline to endpoint), in words: FIG. 11; for effect on concentrations of sitosterol and campesterol (baseline to endpoint), in words / effect on concentrations of cholesterol precursors lathosterol and desmosterol (baseline to endpoint), in words / effect on ratios of sitosterol:cholesterol and campesterol:cholesterol, in words / effect on ratios of lathosterol:cholesterol and desmosterol:cholesterol, in words: pooled doses, 12 weeks; for effect on concentrations of cholesterol precursors lathosterol and desmosterol (baseline to endpoint), in words: FIG. 13; for effect on ratios of sitosterol:cholesterol and campesterol:cholesterol, in words: Table in FIG. 11; for effect on ratios of lathosterol:cholesterol and desmosterol:cholesterol, in words: Table in FIG. 13; for Campesterol Noncholesterols:Cholesterol Ratio: Mean change / Desmosterol Noncholesterols:Cholesterol Ratio: Mean change / Lathosterol Noncholesterols:Cholesterol Ratio: Mean change / Sitosterol Noncholesterols:Cholesterol Ratio: Mean change / Campesterol % chng LSmean (absolute sterol concentrations) / Desmosterol % chng LSmean (absolute sterol concentrations) / Lathosterol % chng LSmean (absolute sterol concentrations) / Sitosterol % chng LSmean (absolute sterol concentrations): baseline to endpoint, 12 weeks daily treatment, EZE 10 mg, ATORVA pooled; for Campesterol % chng LSmean (absolute sterol concentrations) / Desmosterol % chng LSmean (absolute sterol concentrations) / Lathosterol % chng LSmean (absolute sterol concentrations) / Sitosterol % chng LSmean (absolute sterol concentrations): plasma. The method, then:
(§1) A post-hoc analysis of a randomized, double-blind, placebo-controlled trial of primary hypercholesterolemia patients (LDL-C 145-250 mg/dl and TG<350 mg/dl) was conducted. Baseline and endpoint samples of 397 patients were analyzed by GCMS
In this trial, following a 4 week placebo lead-in/diet phase, patients with primary hypercholesterolemia (LDL-C 3.8-6.5 mmol/L [145-250 mg/dL] and TG≦4 mmol/L [350 mg/dL]) were randomized to one of the following daily treatments for 12 weeks:
Of 628 patients randomized to treatment in the original study, 397 (63%) had evaluable −70° C. plasma samples for both baseline and endpoint visits.
Concentrations of non-cholesterol sterols were measured by gas chromatography-mass spectrometry (GC-MS).
The primary efficacy parameter was mean percent change in plasma sitosterol concentration from baseline to endpoint comparing EZE/ATORVA (pooled across doses) versus ATORVA (pooled across doses). Other efficacy parameters included mean percent changes in campesterol, lathosterol and desmosterol concentrations as well as mean changes in the ratios of each of these sterols to cholesterol.
(§2) Two-tailed testing was conducted at a=0.05. To compare treatment effects on sterol concentrations and ratios, an ANCOVA model including the fixed effects of treatment, dose, and dose-by-treatment interaction was used with the baseline value as the covariate.

Experiment [2] has the same test system. The experiment can be described thus: LDL-C and other lipid parameters by treatment, EZE/ATORVA trial (Example 3). The settings on record: 12 weeks daily treatment, EZE 10 mg, pooled ATORVA 10-80 mg; for Triglycerides (median) % Change (±SE) from Baseline: median and SE from raw data. Here is the method: as §1
In this trial, following a 4 week placebo lead-in/diet phase, patients with primary hypercholesterolemia (LDL-C 3.8-6.5 mmol/L [145-250 mg/dL] and TG≦4 mmol/L [350 mg/dL]) were randomized to one of the following daily treatments for 12 weeks: […]

For experiment [3] the test system is unchanged. As to the kind of experiment: Non-cholesterol sterol analysis of plasma by GC-MS, EZE/SIMVA trial (Example 2). To be noted: for effect on concentrations of sitosterol and campesterol (baseline to endpoint), in words: FIG. 6; for Campesterol Ratio: Mean change (sterol:cholesterol) / Desmosterol Ratio: Mean change (sterol:cholesterol) / Lathosterol Ratio: Mean change (sterol:cholesterol) / Sitosterol Ratio: Mean change (sterol:cholesterol) / Campesterol % change (Mean % change) / Desmosterol % change (Mean % change) / Lathosterol % change (Mean % change) / Sitosterol % change (Mean % change): baseline to endpoint, 12 weeks daily treatment, EZE 10 mg; for Campesterol Ratio: Mean change (sterol:cholesterol) / Desmosterol Ratio: Mean change (sterol:cholesterol) / Lathosterol Ratio: Mean change (sterol:cholesterol) / Sitosterol Ratio: Mean change (sterol:cholesterol) / Campesterol % change (Mean % change) / Desmosterol % change (Mean % change) / Lathosterol % change (Mean % change): SIMVA pool of all doses; for Campesterol % change (Mean % change) / Desmosterol % change (Mean % change) / Lathosterol % change (Mean % change) / Sitosterol % change (Mean % change): plasma concentration; for Sitosterol % change (Mean % change): SIMVA pool of all doses 10-80 mg. Here is the method:
(§3) A post-hoc analysis of a randomized, double-blind, placebo-controlled trial of primary hypercholesterolemia patients (LDL-C 145-250 mg/dl and TG≦350 mg/dl) was conducted to examine the effects of 12 weeks of daily treatment with ezetimibe (EZE) 10 mg, simvastatin (SIMVA) pooled doses 10-80 mg, or EZE 10 mg/SIMVA 10-80 mg (EZE/SIMVA) coadministration (pooled) on concentrations of phytosterols (sitosterol and campesterol) and cholesterol precursors (lathosterol and desmosterol). Baseline and endpoint plasma samples of 578 patients were analyzed by GC-mass spectrometry
Following a 4 week placebo lead-in/diet phase, patients with primary hypercholesterolemia (LDL-C 145-250 mg/dL and TG≦350 mg/dL) were randomized on one of the following daily treatments for 12 weeks:
Of 668 patients randomized to treatment in the original study, 578 (86%) had evaluable −70° C. plasma samples for both baseline and endpoint visits. Concentrations of non-cholesterol sterols were measured by gas chromatography-mass spectrometry (GC-MS).
The primary efficacy parameter was mean percent change in plasma sitosterol concentration from baseline to endpoint comparing EZE/SIMVA (pooled across doses) versus SIMVA monotherapy (pooled across doses). Other efficacy parameters included mean percent changes in campesterol, lathosterol and desmosterol concentrations as well as mean changes in the ratios of each of these sterols to cholesterol.
as §2

Experiment [4] has the same test system. The experiment can be described thus: LDL-C and other lipid parameters by treatment, EZE/SIMVA trial (Example 2). The settings on record: 12 weeks daily treatment, EZE 10 mg, pooled SIMVA 10-80 mg; for Triglycerides (median) % Change (±SE) from Baseline: median and SE from raw data. Here is the method: as §3
Following a 4 week placebo lead-in/diet phase, patients with primary hypercholesterolemia (LDL-C 145-250 mg/dL and TG≦350 mg/dL) were randomized on one of the following daily treatments for 12 weeks: […]

Marks after values point to notes of the source that are not given here.

`CC(C)c1c(C(=O)Nc2ccccc2)c(-c2ccccc2)c(-c2ccc(F)cc2)n1CC[C@@H](O)C[C@@H](O)CC(=O)O` [ATORVA, atorvastatin]: in experiment [1], the “effect on concentrations of sitosterol and campesterol (baseline to endpoint), in words” value is “significantly increased”; the “effect on concentrations of cholesterol precursors lathosterol and desmosterol (baseline to endpoint), in words” value is on record as “large, significant reductions”; the “effect on ratios of sitosterol:cholesterol and campesterol:cholesterol, in words” value is “significantly increased”; the “effect on ratios of lathosterol:cholesterol and desmosterol:cholesterol, in words” value is “significantly reduced”. In addition, in experiment [1], the “Campesterol Noncholesterols:Cholesterol Ratio: Mean change” value was 128*^† 10^2 mmol/mol, the “Desmosterol Noncholesterols:Cholesterol Ratio: Mean change” value is recorded as −34.5*^† 10^2 mmol/mol, the “Lathosterol Noncholesterols:Cholesterol Ratio: Mean change” value is recorded as −69.8*^† 10^2 mmol/mol and the “Sitosterol Noncholesterols:Cholesterol Ratio: Mean change” value was 77.4*^† 10^2 mmol/mol. For the same compound, in experiment [1], the “Campesterol % chng LSmean (absolute sterol concentrations)” value is recorded as 10.1^† %, the “Desmosterol % chng LSmean (absolute sterol concentrations)” value is listed as −55.4*^† %, the “Lathosterol % chng LSmean (absolute sterol concentrations)” value was −69.0*^† % and the “Sitosterol % chng LSmean (absolute sterol concentrations)” value is 16.1^† %. Moreover, in experiment [2], the “HDL-C LS Mean % Change (±SE) from Baseline” value (“HDL-C LS Mean % Change (±SE)” for short) is 5.21 (0.85) %, the “LDL-C LS Mean % Change (±SE) from Baseline” value (from here on “LDL-C LS Mean % Change (±SE)”) is on record as −43.56 (1.02) %, the “Total Cholesterol LS Mean % Change (±SE) from Baseline” value is −32.96 (0.81) % and the “Triglycerides (median) % Change (±SE) from Baseline” value is −25.83 (1.80) %.
For the compound `O=C1[C@H](CC[C@H](O)c2ccc(F)cc2)[C@@H](c2ccc(O)cc2)N1c1ccc(F)cc1` [EZE, ezetimibe], in experiment [3] (pooled doses, 12 weeks), the “effect on concentrations of sitosterol and campesterol (baseline to endpoint), in words” value was “large, significant reductions”. Besides, the “effect on concentrations of cholesterol precursors lathosterol and desmosterol (baseline to endpoint), in words” value in experiment [3] (FIG. 8, pooled doses, 12 weeks) is “increased”. The “effect on ratios of sitosterol:cholesterol and campesterol:cholesterol, in words” value in experiment [3] (Table in FIG. 6, pooled doses, 12 weeks) was “significantly reduced”. In addition, the “effect on ratios of lathosterol:cholesterol and desmosterol:cholesterol, in words” value in experiment [3] (Table in FIG. 8, pooled doses, 12 weeks) was “significantly increased”. Further, in experiment [3], the “Campesterol Ratio: Mean change (sterol:cholesterol)” value is −78.6* 10^2 mmol/mol, the “Desmosterol Ratio: Mean change (sterol:cholesterol)” value is reported as 25.7* 10^2 mmol/mol, the “Lathosterol Ratio: Mean change (sterol:cholesterol)” value is listed as 36.8* 10^2 mmol/mol and the “Sitosterol Ratio: Mean change (sterol:cholesterol)” value was −37.8* 10^2 mmol/mol. For the same compound, in experiment [3], the “Campesterol % change (Mean % change)” value was −50.5* %, the “Desmosterol % change (Mean % change)” value was found to be 16.1%, the “Lathosterol % change (Mean % change)” value is given as 35.5* % and the “Sitosterol % change (Mean % change)” value is reported as −46.5* %. Also, in experiment [1], the “effect on concentrations of sitosterol and campesterol (baseline to endpoint), in words” value was “large, significant reductions”; the “effect on concentrations of cholesterol precursors lathosterol and desmosterol (baseline to endpoint), in words” value is “significantly increased”; the “effect on ratios of sitosterol:cholesterol and campesterol:cholesterol, in words” value is reported as “significantly reduced”; the “effect on ratios of lathosterol:cholesterol and desmosterol:cholesterol, in words” value is “increased”. In experiment [1], the “Campesterol Noncholesterols:Cholesterol Ratio: Mean change” value is −151* 10^2 mmol/mol, the “Desmosterol Noncholesterols:Cholesterol Ratio: Mean change” value is 38.1 10^2 mmol/mol, the “Lathosterol Noncholesterols:Cholesterol Ratio: Mean change” value was 56.2* 10^2 mmol/mol and the “Sitosterol Noncholesterols:Cholesterol Ratio: Mean change” value is −70.1* 10^2 mmol/mol. Moreover, in experiment [1], the “Campesterol % chng LSmean (absolute sterol concentrations)” value is reported as −58.2* %, the “Desmosterol % chng LSmean (absolute sterol concentrations)” value is on record as 20.6* %, the “Lathosterol % chng LSmean (absolute sterol concentrations)” value is recorded as 34.5* % and the “Sitosterol % chng LSmean (absolute sterol concentrations)” value is −53.8* %. Also, in experiment [4], the “HDL-C LS Mean % Change (±SE)” value is reported as 5.5 ± 1.6%, the “LDL-C LS Mean % Change (±SE)” value is −18.5 ± 1.8%, the “Total Cholesterol LS Mean % Change (±SE) from Baseline” value is −13.5 ± 1.4% and the “Triglycerides (median) % Change (±SE) from Baseline” value is reported as −8.6 ± 3.9%. In experiment [2], the “HDL-C LS Mean % Change (±SE)” value is listed as 5.36 (1.71) %, the “LDL-C LS Mean % Change (±SE)” value is reported as −17.10 (2.06) %, the “Total Cholesterol LS Mean % Change (±SE) from Baseline” value is on record as −12.97 (1.63) % and the “Triglycerides (median) % Change (±SE) from Baseline” value is recorded as −2.86 (4.54) %.
For `CCC(C)(C)C(=O)O[C@H]1C[C@@H](C)C=C2C=C[C@H](C)[C@H](CC[C@@H]3C[C@@H](O)CC(=O)O3)[C@H]21` [SIMVA, simvastatin], in experiment [3] (pooled doses, 12 weeks), the “effect on concentrations of sitosterol and campesterol (baseline to endpoint), in words” value is “no significant effect”. Besides, in experiment [3], the “Campesterol Ratio: Mean change (sterol:cholesterol)” value is reported as 39.8* 10^2 mmol/mol, the “Desmosterol Ratio: Mean change (sterol:cholesterol)” value is reported as −22.8* 10^2 mmol/mol, the “Lathosterol Ratio: Mean change (sterol:cholesterol)” value is −37.8* 10^2 mmol/mol and the “Sitosterol Ratio: Mean change (sterol:cholesterol)” value was 21.4* 10^2 mmol/mol. Also, in experiment [3], the “Campesterol % change (Mean % change)” value is recorded as −1.6* %, the “Desmosterol % change (Mean % change)” value was −48.0* %, the “Lathosterol % change (Mean % change)” value is reported as −53.5* % and the “Sitosterol % change (Mean % change)” value is given as −3.3* %. In addition, in experiment [4], the “HDL-C LS Mean % Change (±SE)” value was 7.2 ± 0.8%, the “LDL-C LS Mean % Change (±SE)” value was −37.1 ± 0.9%, the “Total Cholesterol LS Mean % Change (±SE) from Baseline” value is −26.8 ± 0.7% and the “Triglycerides (median) % Change (±SE) from Baseline” value is on record as −20.4 ± 1.5%.
